# Assays:
# Type in all cases: in vivo, swine
# gilts [1] = assay: Ovulation monitoring by transrectal ultrasonography, triptorelin gel dose 100-400 mcg at 120 h post-MATRIX (Example 5); conditions: for % of Sows Ovulating: raw average, PTK 2-07
# Protocol: (§1) All gilts were individually fed MATRIX® as a top-dress for 14 or 15 days at the recommended rate of 15 mg/gilt/day. Gilts were withdrawn from MATRIX® feeding (last top-dress in the morning on Day 0) and allocated to each of the following treatments. Controls were vehicle gel treated (vehicle gel without triptorelin) at 120 (+/−2) hours following MATRIX® withdrawal (last top dress). The other gilts were given 100, 200 or 400 mcg triptorelin as the acetate in a methylcellulose gel formulation 120 (+/−2) hours following MATRIX® withdrawal. The four treatments were: • 1. Vehicle gel (VG): vehicle gel without triptorelin at 120 (+/−2) hours after MATRIX® withdrawal. • 2. TG 100: 100 mcg (2 mL 50 mcg/mL) triptorelin gel at 120 (+/−2) hours after MATRIX® withdrawal. • 3. TG 200: 200 mcg (2 mL 100 mcg/mL) triptorelin gel at 120 (+/−2) hours after MATRIX® withdrawal. • 4. TG 400: 400 mcg (2 mL 200 mcg/mL) triptorelin gel at 120 (+/−2) hours after MATRIX® withdrawal.
# Ovulation was monitored twice on Day 5 (8 hours and 16 hours post-treatment) and every 8 hours on Day 6 and Day 7 or until ovulation was confirmed or 176 hours following last MATRIX® feeding. The ovulatory status of all gilts was monitored by transrectal ultrasonography. An Aloka 500 ultrasound machine is used for this purpose, with a 7.5 MHz linear array transducer attached to a fixed-angle PVC stabilizing rod to facilitate insertion into the rectum. The transducer and PVC rod are coated with a gynecological lubricant and gently inserted into the rectum until the ovaries can be visualized, one at a time. The diameters of the three largest follicles were recorded (to the nearest 0.1 mm) at each scanning. A gilt was declared to have ovulated when the number of large follicles (≧6.5 mm) fell to less than 3.
# (§2) A single 2 mL dose of triptorelin gel or vehicle gel was deposited within approximately 1-2 cm posterior to the cervix with a catheter similar to those used for artificial insemination. The dose was delivered using a standard multi-dose applicator attached to the catheter. A new disposable sheath, which surrounds the catheter, was used for each gilt.
# gilts [2] = assay: Ovulation monitoring by transrectal ultrasonography after triptorelin gel at 96, 120 or 144 h post-MATRIX (Example 1); conditions: raw average, PTK 1-07 (rep 3), 200 mcg T at 120 h post-MATRIX
# Protocol: All gilts were individually fed MATRIX® as a top-dress for 14 days at the recommended rate of 15 mg/gilt/day. Gilts were withdrawn from MATRIX® feeding (last top feed in the morning on Day 0) and allotted to treatments. Controls were treated with a 1.2% methylcellulose gel formulation without triptorelin at 96 hours following MATRIX® withdrawal (last top-dress). The remaining gilts received 200 mcg triptorelin, as the acetate, in a 1.2% methylcellulose gel formulation intravaginally at various times after MATRIX® withdrawal. The four treatments were: 1) vehicle gel (VG) treatment at 96 hours after MATRIX® withdrawal, 2) triptorelin gel (TG) treatment at 96 hours after MATRIX® withdrawal, 3) TG treatment at 120 hours after MATRIX® withdrawal and 4) TG treatment at 144 hours after MATRIX® withdrawal. All gilts were monitored for their estrous and ovulatory status as described below. Gilts included in replicate 1 were selected from terminal line commercial production gilts located in grow/finish barns. Sexual maturity, as indicated by one or more estrous periods, was not verified prior to the start of MATRIX® feeding. Gilts included in replicate 2 were selected from a maternal line gilt population. Sexual maturity was verified by at least one estrous period verified and recorded prior to starting MATRIX® feeding.
# The ovulatory status of all gilts was monitored by transrectal ultrasonography. For replicate one, ovulation was monitored two times on Day 5, then three times a day from Day 6 to Day 8. For replicate two, ovulation was monitored three times a day from Day 5 to Day 8. An Aloka 500 ultrasound machine with a 7.5 MHz linear array transducer attached to a fixed-angle PVC stabilizing rod to facilitate insertion into the rectum was used for this purpose. The transducer and PVC rod were coated with a gynecological lubricant and gently inserted into the rectum until the ovaries were visualized, one at a time. The diameters of the three largest follicles were recorded (to the nearest 0.1 mm) at each scanning. A gilt was declared to have ovulated when the number of large follicles (≧6.5 mm) fell to less than 3.
# as §2
# Data were analyzed using the Mixed Models procedures of SAS. Models included main effects of time of treatment following the last feeding of MATRIX®, replicate, and treatment by replicate interaction. Differences between treatments were tested on least squares means estimates using the T test at P <0.05. Data for analysis were tested for assumptions of data normality.
# gilts [3] = assay: Estrus observation, triptorelin gel dose study (Example 5); conditions: raw average, PTK 2-07
# Protocol: as §1
# For post-treatment estrus detection, gilts were housed in individual pens. Boars were housed in separate rooms, and/or at least 12 m away and downwind. To elicit signs of estrus, a mature boar was walked slowly in the alley in front of the gilts' crates, exposing each test gilt to visual, auditory and olfactory signals from the boar for up to 5 minutes. […]
# gilts [4] = assay: Estrus observation after triptorelin gel (Example 1); conditions: raw average, PTK 1-07 (rep 3); 200 mcg T at 120 h post-MATRIX
# Protocol: All gilts were individually fed MATRIX® as a top-dress for 14 days at the recommended rate of 15 mg/gilt/day. Gilts were withdrawn from MATRIX® feeding (last top feed in the morning on Day 0) and allotted to treatments. Controls were treated with a 1.2% methylcellulose gel formulation without triptorelin at 96 hours following MATRIX® withdrawal (last top-dress). The remaining gilts received 200 mcg triptorelin, as the acetate, in a 1.2% methylcellulose gel formulation intravaginally at various times after MATRIX® withdrawal. The four treatments were: 1) vehicle gel (VG) treatment at 96 hours after MATRIX® withdrawal, 2) triptorelin gel (TG) treatment at 96 hours after MATRIX® withdrawal, 3) TG treatment at 120 hours after MATRIX® withdrawal and 4) TG treatment at 144 hours after MATRIX® withdrawal. All gilts were monitored for their estrous and ovulatory status as described below. Gilts included in replicate 1 were selected from terminal line commercial production gilts located in grow/finish barns. Sexual maturity, as indicated by one or more estrous periods, was not verified prior to the start of MATRIX® feeding. Gilts included in replicate 2 were selected from a maternal line gilt population. Sexual maturity was verified by at least one estrous period verified and recorded prior to starting MATRIX® feeding. […]
# Data were analyzed using the Mixed Models procedures of SAS. […]
# LH = assay: Serum LH surge after triptorelin gel (Example 5)
# Protocol: A catheter was inserted non-surgically into the jugular vein (Kraeling et al. 1982) of a subpopulation of gilts in each treatment group (vehicle gel, n=8; 100 mcg triptorelin, n=6; 200 mcg triptorelin, n=7 and 400 mcg triptorelin, n=6). Ten mL blood samples were collected every 15 minutes for one hour prior to treatment, immediately following treatment (0) and at 0.5, 1, 2, 4, 6, 12, 18, 24, 36 and 48 hours after treatment. Blood samples were maintained at 4° C. until centrifuged at 800 x g for 15 minutes within 12 hours of collection. The resulting serum was stored frozen until assayed for LH using validated procedures for pig serum (Kesner et al., 1987 and Kraeling et al., 1982). Onset, duration, and magnitude of the LH surge were analyzed. The LH data were analyzed with the General Linear Models procedure of SAS. Differences between treatments were tested on least squares means estimates using the T test at P<0.05. Onset of the LH surge is when serum LH concentration is greater than or equal to two standard deviations of the mean of the pre-treatment serum LH concentrations. Duration of the LH surge is the period between onset and when serum LH concentration is again less than or equal to two standard deviations of the mean of the pre-treatment serum LH concentrations. Magnitude of the LH surge is the maximum serum LH concentration reached during the LH surge.
# [5] = 200 mcg T in gel at 120 h post-MATRIX, relative to time of treatment, one gilt with surge
structure (smiles),measurement,setting,value
"CC(C)C[C@H](NC(=O)[C@@H](Cc1c[nH]c2ccccc12)NC(=O)[C@H](Cc1ccc(O)cc1)NC(=O)[C@H](CO)NC(=O)[C@H](Cc1c[nH]c2ccccc12)NC(=O)[C@H](Cc1c[nH]cn1)NC(=O)[C@@H]1CCC(=O)N1)C(=O)N[C@@H](CCCNC(=N)N)C(=O)N1CCC[C@H]1C(=O)NCC(N)=O [T, pGlu-His-Trp-Ser-Tyr-D-Trp-Leu-Arg-Pro-Gly-NH2]",Percentage ovulated by 48 hours,"gilts [1]; 100 mcg T in gel at 120 h post-MATRIX, catheterized subpopulation n = 6",100%
same,Percentage ovulated by 48 hours,"gilts [1]; 200 mcg T in gel at 120 h post-MATRIX, catheterized subpopulation n = 7",100%
same,Percentage ovulated by 48 hours,"gilts [1]; 400 mcg T in gel at 120 h post-MATRIX, catheterized subpopulation n = 6",100%
same,% of Sows Ovulating,"gilts [1]; 100 mcg T at 120 h post-MATRIX, 128 h post-MATRIX (8 h post-T)",0.0%
same,% of Sows Ovulating,"gilts [1]; 100 mcg T at 120 h post-MATRIX, 136 h post-MATRIX (16 h post-T)",5.0%
same,% of Sows Ovulating,"gilts [1]; 100 mcg T at 120 h post-MATRIX, 144 h post-MATRIX (24 h post-T)",20.0%
same,% of Sows Ovulating,"gilts [1]; 100 mcg T at 120 h post-MATRIX, 152 h post-MATRIX (32 h post-T)",30.0%
same,% of Sows Ovulating,"gilts [1]; 100 mcg T at 120 h post-MATRIX, 160 h post-MATRIX (40 h post-T)",60.0%
same,% of Sows Ovulating,"gilts [1]; 100 mcg T at 120 h post-MATRIX, 168 h post-MATRIX (48 h post-T)",95.0%
same,% of Sows Ovulating,"gilts [1]; 100 mcg T at 120 h post-MATRIX, 176 h post-MATRIX (56 h post-T)",100.0%
same,% of Sows Ovulating,"gilts [1]; 200 mcg T at 120 h post-MATRIX, 128 h post-MATRIX (8 h post-T)",0.0%
same,% of Sows Ovulating,"gilts [1]; 200 mcg T at 120 h post-MATRIX, 136 h post-MATRIX (16 h post-T)",0.0%
same,% of Sows Ovulating,"gilts [1]; 400 mcg T at 120 h post-MATRIX, 128 h post-MATRIX (8 h post-T)",4.5%
same,% of Sows Ovulating,"gilts [1]; 400 mcg T at 120 h post-MATRIX, 136 h post-MATRIX (16 h post-T)",9.1%
same,% of Sows Ovulating,"gilts [1]; 400 mcg T at 120 h post-MATRIX, 168 h post-MATRIX (48 h post-T)",100.0%
same,% of Sows Ovulating,"gilts [1]; 400 mcg T at 120 h post-MATRIX, 176 h post-MATRIX (56 h post-T)",100.0%
same,% of Sows Ovulating,gilts [2]; 128 h post-MATRIX (8 h post-T),0.0%
same,% of Sows Ovulating,gilts [2]; 136 h post-MATRIX (16 h post-T),10.0%
same,% of Sows Ovulating,gilts [2]; 144 h post-MATRIX (24 h post-T),30.0%
same,% of Sows Ovulating,gilts [2]; 152 h post-MATRIX (32 h post-T),70.0%
same,% of Sows Ovulating,gilts [2]; 160 h post-MATRIX (40 h post-T),80.0%
same,% of Sows Ovulating,gilts [2]; 168 h post-MATRIX (48 h post-T),90.0%
same,% of Sows Ovulating,gilts [2]; 176 h post-MATRIX (56 h post-T),100.0%
same,Estrous Expression (%),gilts [3]; 100 mcg T at 120 h post-MATRIX,75.0%
same,Estrous Expression (%),gilts [3]; 200 mcg T at 120 h post-MATRIX,81.0%
same,Estrous Expression (%),gilts [4],100.0%
same,"Gilts, which displayed a LH surge","LH; 100 mcg T in gel at 120 h post-MATRIX, number of n = 6 catheterized gilts",4
same,Onset of LH surge,"LH; 100 mcg T in gel at 120 h post-MATRIX, relative to time of treatment, LS mean ± SE",4 ± 3
same,"Gilts, which displayed a LH surge","LH; 200 mcg T in gel at 120 h post-MATRIX, number of n = 7 catheterized gilts",1
same,Duration of LH surge,"LH; 200 mcg T in gel at 120 h post-MATRIX, one gilt with surge",18
same,Onset of LH surge,LH; [5],0.5
same,Time of maximum LH conc.,LH; [5],4 h
same,"Gilts, which displayed a LH surge","LH; 400 mcg T in gel at 120 h post-MATRIX, number of n = 6 catheterized gilts",5
same,Onset of LH surge,"LH; 400 mcg T in gel at 120 h post-MATRIX, relative to time of treatment, LS mean ± SE",4 ± 4
